According to PMC3132655, “Synthesis and In Vitro Evaluation of Novel Nortropane Derivatives as Potential Radiotracers for Muscarinic M2 Receptors” (International Journal of Molecular Imaging, 2011):
pKi: −log10 of the molar value. Read-outs that look alike come from different tables or passages of the source.

Key:
[1] = molecular target: T1, recombinant human muscarinic M2 receptor (Homo sapiens, UniProt P08172); assay: competitive binding against [3H]NMS, CHO cell membranes, M2; conditions: for affinity for M2 (in words): [3H]NMS competition
T1 construct: purchased Perkin Elmer, Waltham, USA; host or cells: CHO cells (membrane suspensions)
T1 sequence (P08172 1-466): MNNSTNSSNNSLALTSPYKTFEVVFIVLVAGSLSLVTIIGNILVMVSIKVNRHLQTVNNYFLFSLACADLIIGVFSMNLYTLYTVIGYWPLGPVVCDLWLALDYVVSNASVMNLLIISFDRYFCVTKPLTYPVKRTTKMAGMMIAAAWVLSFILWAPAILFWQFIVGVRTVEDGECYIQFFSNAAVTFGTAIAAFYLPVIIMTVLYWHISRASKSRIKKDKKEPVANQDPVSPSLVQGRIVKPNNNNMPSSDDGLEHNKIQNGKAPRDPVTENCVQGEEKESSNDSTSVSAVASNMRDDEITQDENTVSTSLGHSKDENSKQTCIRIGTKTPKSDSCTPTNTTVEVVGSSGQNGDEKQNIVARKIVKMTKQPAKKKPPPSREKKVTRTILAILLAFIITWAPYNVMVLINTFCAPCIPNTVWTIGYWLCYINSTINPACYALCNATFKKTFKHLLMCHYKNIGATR
Procedure: (§1) Assays were performed on membrane suspensions from CHO cells expressing either the recombinant human muscarinic M1, M2, or the M3 receptor subtype (Perkin Elmer, Waltham, USA).
(§2) In the competitive binding assays, incubation buffer contained 50 mM TRIS-HCl, 10 mM MgCl2, and 1 mM EDTA (pH 7.4 at 4°C). The assays were incubated during 60 min (M1 or M2 receptor subtypes) or 120 min (M3 receptor subtypes) at 27°C. Nonspecific binding was determined using atropine as a competitor in a concentration of 1 μM.
(§3) In the first series of competitive binding assays, the 6β-4′-iodobenzyl ether (5b) and the 6β-4′-iodobenzoate ester (5c) of 6β-nortropinol, as well as the lead compound 6β-acetoxynortropane (5a), were tested. Protein concentrations for undiluted receptor subtype suspensions were 1.2 mg/mL (M1), 4.3 mg/mL (M2), and 2.0 mg/mL (M3). […] Final competitor concentrations ranged from 1.0 · 10^−10 M to 1.0 · 10^−4 M. After incubation, the reaction was rapidly terminated by vacuum filtration over GF/C glass fiber filters, presoaked in 0.3% polyethylenimine (Sigma-Aldrich, Munich, Germany), and washed 5 times with 1 mL of ice-cold buffer. Filters were placed in vials with 10 mL of scintillation fluid (Ultima Gold, Perkin Elmer, Waltham, USA) and counted in a liquid scintillation counter (Tri-Carb 2900 TR Liquid Scintillation Analyzer, Packard. Software version: 3100).
(§4) In the second series of competitive binding assays, derivative 10a and 10b and the lead compound 6β-acetoxynortropane (5a) were tested. In this series, the protein concentrations for undiluted receptor subtype suspensions were 0.6 mg/mL (M1), 7.5 mg/mL (M2), and 1.5 mg/mL (M3). […] Final competitor concentrations ranged from 1.0 · 10^−10 M to 1.0 · 10^−5 M. After incubation, the assays were filtrated over UniFilter 96 GF/C filter plates, presoaked in 0.3% polyethylenimine (Sigma-Aldrich, Munich, Germany), and washed 9 times with 200 μL of ice-cold buffer. 30 μL of scintillation fluid (MicroScint, Perkin Elmer, Waltham, USA) was added, and the filter plates were counted in a liquid scintillation counter (TopCount 5.0 Liquid Scintillation Analyzer, Perkin Elmer, Waltham, USA).

[2] = molecular target: T2, recombinant human muscarinic M1 receptor (Homo sapiens, UniProt P11229); assay: competitive binding against [3H]NMS, CHO cell membranes, M1; conditions: for selectivity ratio for M2 over M1: ratio of Ki, [3H]NMS; for affinity for M1 (in words): [3H]NMS competition
T2 construct: purchased Perkin Elmer, Waltham, USA; host or cells: CHO cells (membrane suspensions)
T2 sequence (P11229 whole entry): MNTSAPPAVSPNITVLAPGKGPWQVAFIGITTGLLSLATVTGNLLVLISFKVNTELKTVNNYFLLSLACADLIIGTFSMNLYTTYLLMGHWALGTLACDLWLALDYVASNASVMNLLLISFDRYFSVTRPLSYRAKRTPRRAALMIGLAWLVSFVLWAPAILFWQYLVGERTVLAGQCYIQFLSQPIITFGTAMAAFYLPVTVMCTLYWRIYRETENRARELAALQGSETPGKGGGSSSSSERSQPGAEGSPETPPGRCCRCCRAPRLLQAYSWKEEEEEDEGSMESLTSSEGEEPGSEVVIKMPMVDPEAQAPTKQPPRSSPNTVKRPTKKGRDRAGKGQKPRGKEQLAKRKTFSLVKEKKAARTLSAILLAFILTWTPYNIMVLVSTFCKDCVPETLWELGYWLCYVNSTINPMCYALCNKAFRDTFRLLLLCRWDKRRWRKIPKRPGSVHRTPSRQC
Procedure: as §1, §2, §3, §4

[3] = molecular target: T3, recombinant human muscarinic M3 receptor (Homo sapiens, UniProt P20309); assay: competitive binding against [3H]NMS, CHO cell membranes, M3; conditions: for selectivity ratio for M2 over M3: ratio of Ki, [3H]NMS; for affinity for M3 (in words): [3H]NMS competition
T3 construct: purchased Perkin Elmer, Waltham, USA; host or cells: CHO cells (membrane suspensions)
T3 sequence (P20309 whole entry): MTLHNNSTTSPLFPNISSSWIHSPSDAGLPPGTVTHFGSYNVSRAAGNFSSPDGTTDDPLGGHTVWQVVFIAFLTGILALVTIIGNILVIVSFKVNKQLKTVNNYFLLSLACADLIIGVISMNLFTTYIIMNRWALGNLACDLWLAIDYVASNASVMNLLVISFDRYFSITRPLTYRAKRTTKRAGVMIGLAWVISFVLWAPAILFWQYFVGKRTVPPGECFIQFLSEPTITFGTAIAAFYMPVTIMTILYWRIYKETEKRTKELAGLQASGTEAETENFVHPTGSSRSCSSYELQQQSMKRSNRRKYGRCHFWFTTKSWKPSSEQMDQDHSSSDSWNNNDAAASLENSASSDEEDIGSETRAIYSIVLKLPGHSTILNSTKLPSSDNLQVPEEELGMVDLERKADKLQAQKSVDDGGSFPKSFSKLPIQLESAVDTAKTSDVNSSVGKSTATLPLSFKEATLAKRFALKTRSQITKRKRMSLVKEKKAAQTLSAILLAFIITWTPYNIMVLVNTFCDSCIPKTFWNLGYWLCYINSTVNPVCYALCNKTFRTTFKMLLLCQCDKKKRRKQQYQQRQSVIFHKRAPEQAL
Procedure: as §1, §2, §3, §4

muscarinic M2 receptor = conditions: [3H]QNB as reference tracer; ref 27 (Pei et al.); cited from earlier work
[4] = first series, n = 3, [3H]NMS 0.2 nM, read-out: Ki for M2

SMILES	pKi ([1]; Ki for M2, first series/experiment, n = 3, [3H]NMS 0.2 nM, average ± SD)	pKi ([1]; Ki for M2, second series/experiment, n = 4, [3H]NMS 0.13 nM, average ± SD)	pKi ([1]; Ki to M2 receptors, range over both experiments (abstract))	selectivity ratio to the M1 ([2]; abstract) [fold]	selectivity ratio for M2 over M1 [2]	selectivity ratio to the M3 ([3]; abstract) [fold]	selectivity ratio for M2 over M3 [3]	pKi (muscarinic M2 receptor)	affinity for M2 (in words) [1]	pKi [1, 4]	affinity for M1 (in words) [2]	affinity for M3 (in words) [3]
CC(=O)OC1CC2CCCC1N2 (stereo not drawn) [5a, 6β-acetoxynortropane, reference compound]	7.06	7.15	7.05 to 7.15	65	approximately 65	70	~70	8.59	–	–	–	–
O=C(OC1CC2CCCC1N2)c1ccc(I)cc1 (stereo not drawn) [5c, 6β-4′-iodobenzoate ester of 6β-nortropinol]	–	–	–	–	0.6	–	2.0	–	weak affinity	5.17	weak affinity	weak affinity
Ic1ccc(COC2CC3CCCC2N3)cc1 (stereo not drawn) [5b, 6β-4′-iodobenzyl ether of 6β-nortropinol]	–	–	–	–	0.1	–	0.2	–	weak affinity	5.52	weak affinity	weak affinity
